{"source": "patent US4100285A", "about": "“N-substituted trialkoxybenzyl piperazine derivatives” (Nippon Shinyaku Co., Ltd., priority 1976, dated 1978)", "key": {"[1]": {"test_system": "removed guinea pig heart", "experiment": "Cardiovascular activity measured according to Langedorff's method by using the removed guinea pig heart", "conditions": "Concentration 10^-4 g/ml; for Heart Movements: Amplitude / Heart Movements: Tonus: arrow symbols", "experimental": "(§1) For administration of the compounds of this invention into the human body, it is recommended to give them at the dose of 10 to 500 mg/day for internal administration and 1 to 50 mg/day for intravenous aministration. The compounds can be administered as such or in combination with a pharmaceutical carrier conventionally employed in cardiovascular and like preparations."}, "[2]": {"experiment": "LD50 on mice", "conditions": "in vivo, ip; mouse", "experimental": "as §1"}}}
{"smiles": "COc1ccc(CN2CCN(CC=C(C)C)CC2)c(OC)c1OC", "note": "[Example 1]", "values": [{"measurement": "Coronary perfusion pressure (Δ%)", "setting": "[1]", "value": "5.7 Δ%"}, {"measurement": "Heart rate (Δ%)", "setting": "[1]", "value": "-18.2 Δ%"}, {"measurement": "Heart Movements: Amplitude", "setting": "[1]", "value": ".dwnarw."}, {"measurement": "Heart Movements: Tonus", "setting": "[1]", "value": "→"}]}
{"smiles": "COc1ccc(CN2CCN(CC=Cc3ccccc3)CC2)c(OC)c1OC", "note": "[Example 2]", "values": [{"measurement": "Coronary perfusion pressure (Δ%)", "setting": "[1]", "value": "-11.1 Δ%"}, {"measurement": "Heart rate (Δ%)", "setting": "[1]", "value": "-60.3 Δ%"}, {"measurement": "Heart Movements: Amplitude", "setting": "[1]", "value": ".dwnarw."}, {"measurement": "Heart Movements: Tonus", "setting": "[1]", "value": "→"}]}
{"smiles": "COc1ccc(CN2CCN(c3nc(N)nc(N)n3)CC2)c(OC)c1OC", "note": "[Example 3]", "values": [{"measurement": "Coronary perfusion pressure (Δ%)", "setting": "[1]", "value": "4.4 Δ%"}, {"measurement": "Heart rate (Δ%)", "setting": "[1]", "value": "-21.9 Δ%"}, {"measurement": "Heart Movements: Amplitude", "setting": "[1]", "value": ".dwnarw."}, {"measurement": "Heart Movements: Tonus", "setting": "[1]", "value": "→"}]}
{"smiles": "COc1ccc(CN2CCN(CCN3CCOCC3)CC2)c(OC)c1OC", "note": "[Example 4]", "values": [{"measurement": "Coronary perfusion pressure (Δ%)", "setting": "[1]", "value": "-2.1 Δ%"}, {"measurement": "Heart rate (Δ%)", "setting": "[1]", "value": "-8.6 Δ%"}, {"measurement": "Heart Movements: Amplitude", "setting": "[1]", "value": ".uparw."}, {"measurement": "Heart Movements: Tonus", "setting": "[1]", "value": "→"}, {"measurement": "LD50", "setting": "[2]", "value": 567, "unit": "mg/kg"}]}
{"smiles": "COc1ccc(CN2CCN(CCN3CCN(Cc4ccc(OC)c(OC)c4OC)CC3)CC2)c(OC)c1OC", "note": "[Example 6]", "values": [{"measurement": "Coronary perfusion pressure (Δ%)", "setting": "[1]", "value": "-3.7 Δ%"}, {"measurement": "Heart rate (Δ%)", "setting": "[1]", "value": "-11.7 Δ%"}, {"measurement": "Heart Movements: Amplitude", "setting": "[1]", "value": ".dwnarw."}, {"measurement": "Heart Movements: Tonus", "setting": "[1]", "value": "→"}]}
{"smiles": "COc1ccc(CN2CCN(CCCCN3CCN(Cc4ccc(OC)c(OC)c4OC)CC3)CC2)c(OC)c1OC", "note": "[Example 7]", "values": [{"measurement": "Coronary perfusion pressure (Δ%)", "setting": "[1]", "value": "-18.8 Δ%"}, {"measurement": "Heart rate (Δ%)", "setting": "[1]", "value": "-37.5 Δ%"}, {"measurement": "Heart Movements: Amplitude", "setting": "[1]", "value": ".dwnarw."}, {"measurement": "Heart Movements: Tonus", "setting": "[1]", "value": "→"}, {"measurement": "LD50", "setting": "[2]", "value": 239, "unit": "mg/kg"}]}
{"smiles": "COc1ccc(CN2CCN(CCCCCCN3CCN(Cc4ccc(OC)c(OC)c4OC)CC3)CC2)c(OC)c1OC", "note": "[Example 8]", "values": [{"measurement": "Coronary perfusion pressure (Δ%)", "setting": "[1]", "value": "-19.2 Δ%"}, {"measurement": "Heart rate (Δ%)", "setting": "[1]", "value": "-19.1 Δ%"}, {"measurement": "Heart Movements: Amplitude", "setting": "[1]", "value": ".dwnarw."}, {"measurement": "Heart Movements: Tonus", "setting": "[1]", "value": "→"}, {"measurement": "LD50", "setting": "[2]", "value": 84, "unit": "mg/kg"}]}
{"smiles": "COc1ccc(CN2CCN(CCCCCCCCN3CCN(Cc4ccc(OC)c(OC)c4OC)CC3)CC2)c(OC)c1OC", "note": "[Example 9]", "values": [{"measurement": "Coronary perfusion pressure (Δ%)", "setting": "[1]", "value": "-10.0 Δ%"}, {"measurement": "Heart rate (Δ%)", "setting": "[1]", "value": "-28.6 Δ%"}, {"measurement": "Heart Movements: Amplitude", "setting": "[1]", "value": ".dwnarw."}, {"measurement": "Heart Movements: Tonus", "setting": "[1]", "value": ".dwnarw."}]}
{"smiles": "COc1ccc(CN2CCN(CCO)CC2)c(OC)c1OC", "note": "[Example 10]", "values": [{"measurement": "Coronary perfusion pressure (Δ%)", "setting": "[1]", "value": "-4.4 Δ%"}, {"measurement": "Heart rate (Δ%)", "setting": "[1]", "value": "-10.7 Δ%"}, {"measurement": "Heart Movements: Amplitude", "setting": "[1]", "value": ".dwnarw."}, {"measurement": "Heart Movements: Tonus", "setting": "[1]", "value": ".dwnarw."}, {"measurement": "LD50", "setting": "[2]", "value": 567, "unit": "mg/kg"}]}
{"smiles": "COc1ccc(CN2CCN(CC(C)O)CC2)c(OC)c1OC", "note": "(centres unmarked) [Example 11]", "values": [{"measurement": "Coronary perfusion pressure (Δ%)", "setting": "[1]", "value": "-11.1 Δ%"}, {"measurement": "Heart rate (Δ%)", "setting": "[1]", "value": "-49.4 Δ%"}, {"measurement": "Heart Movements: Amplitude", "setting": "[1]", "value": ".dwnarw."}, {"measurement": "Heart Movements: Tonus", "setting": "[1]", "value": "→"}, {"measurement": "LD50", "setting": "[2]", "value": 336, "unit": "mg/kg"}]}
{"smiles": "COc1ccc(CN2CCN(CC(O)CO)CC2)c(OC)c1OC", "note": "(centres unmarked) [Example 12]", "values": [{"measurement": "Heart rate (Δ%)", "setting": "[1]", "value": "-16.1 Δ%"}, {"measurement": "Heart Movements: Amplitude", "setting": "[1]", "value": ".dwnarw."}, {"measurement": "Heart Movements: Tonus", "setting": "[1]", "value": "→"}, {"measurement": "LD50", "setting": "[2]", "value": 724, "unit": "mg/kg"}]}
{"smiles": "COc1ccc(CN2CCN(CC(O)c3ccccc3)CC2)c(OC)c1OC", "note": "(centres unmarked) [Example 13]", "values": [{"measurement": "Coronary perfusion pressure (Δ%)", "setting": "[1]", "value": "-16.0 Δ%"}, {"measurement": "Heart rate (Δ%)", "setting": "[1]", "value": "-54.5 Δ%"}, {"measurement": "Heart Movements: Amplitude", "setting": "[1]", "value": ".dwnarw."}, {"measurement": "Heart Movements: Tonus", "setting": "[1]", "value": "→"}, {"measurement": "LD50", "setting": "[2]", "value": 106, "unit": "mg/kg"}]}
{"smiles": "COc1ccc(CN2CCN(CC(O)COc3ccccc3)CC2)c(OC)c1OC", "note": "(centres unmarked) [Example 14]", "values": [{"measurement": "Coronary perfusion pressure (Δ%)", "setting": "[1]", "value": "-20.0 Δ%"}, {"measurement": "Heart rate (Δ%)", "setting": "[1]", "value": "-48.7 Δ%"}, {"measurement": "Heart Movements: Amplitude", "setting": "[1]", "value": ".dwnarw."}, {"measurement": "Heart Movements: Tonus", "setting": "[1]", "value": ".dwnarw."}, {"measurement": "LD50", "setting": "[2]", "value": 142, "unit": "mg/kg"}]}
